Experimental data reported in ChEMBL document CHEMBL1130426, “Probing the mechanism of action and decomposition of amino acid phosphomonoester amidates of antiviral nucleoside prodrugs” (J Med Chem, 1997).

Legend:
[1] = system: CCRF-CEM; assay: Cytotoxic concentration required to inhibit 50% […] in CEM cells; type: functional; settings: Homo sapiens
[2] = Effective concentration required to inhibit 50% of HIV-1 in peripheral blood mononuclear cells (PBMC); type: functional, Homo sapiens
[3] = Cytotoxic concentration required to inhibit 50% […] in peripheral blood mononuclear cells (PBMC); type: functional; settings: Homo sapiens

| SMILES | CC50 [1] [µM] | EC50 [2] [nM] | CC50 [3] [µM] |
| --- | --- | --- | --- |
| COC(=O)[C@H](Cc1c[nH]c2ccccc12)NP(=O)(O)OCC1OC(n2cc(C)c(=O)[nH]c2=O)CC1F (stereo not given in full) | 35.1 | 900 | > 100 |
| Cc1cn([C@H]2C[C@H](F)[C@@H](CO)O2)c(=O)[nH]c1=O [ALOVUDINE] | – | 1 | 8.6 |
| COC(=O)[C@H](Cc1c[nH]c2ccccc12)NP(=O)(OCCC#N)OCC1OC(n2cc(C)c(=O)[nH]c2=O)CC1F (stereo not given in full) | > 95.6 | 200 | > 100 |
| COC(=O)[C@H](Cc1ccccc1)NP(=O)(O)OCC1OC(n2cc(C)c(=O)[nH]c2=O)CC1N=[N+]=[N-] (stereo not given in full) | > 100 | 600 | > 100 |
| COC(=O)[C@H](Cc1c[nH]c2ccccc12)NP(=O)(OCCC#N)OCC1OC(n2cc(C)c(=O)[nH]c2=O)CC1N=[N+]=[N-] (stereo not given in full) | > 100 | 400 | > 100 |
| COC(=O)[C@H](Cc1c[nH]c2ccccc12)NP(=O)(OC)OCC1OC(n2cc(C)c(=O)[nH]c2=O)CC1N=[N+]=[N-] (stereo not given in full) | > 50 | 300 | > 50 |
| Cc1cn([C@H]2C[C@H](N=[N+]=[N-])[C@@H](CO)O2)c(=O)[nH]c1=O [ZIDOVUDINE] | 14.3 | 80 | > 100 |
| COC(=O)[C@H](Cc1ccccc1)NP(=O)(OCCC#N)OCC1OC(n2cc(C)c(=O)[nH]c2=O)CC1N=[N+]=[N-] (stereo not given in full) | > 100 | > 1000 | > 100 |
| COC(=O)[C@H](Cc1ccccc1)NP(=O)(OC)OCC1OC(n2cc(C)c(=O)[nH]c2=O)CC1N=[N+]=[N-] (stereo not given in full) | > 50 | 90 | > 100 |
| COC(=O)[C@H](Cc1ccccc1)NP(=O)(OC)OCC1OC(n2cc(C)c(=O)[nH]c2=O)CC1F (stereo not given in full) | > 100 | > 210 | > 100 |
| COC(=O)[C@H](Cc1c[nH]c2ccccc12)NP(=O)(O)OC[C@H]1O[C@@H](n2cc(C)c(=O)[nH]c2=O)C[C@@H]1N=[N+]=[N-] | > 100 | 10 | > 100 |
| COC(=O)[C@H](Cc1c[nH]c2ccccc12)NP(=O)(OC)OCC1OC(n2cc(C)c(=O)[nH]c2=O)CC1F (stereo not given in full) | > 100 | 290 | > 100 |
